In paper PMC9786748, “Carvacrol and HP-β-Cyclodextrin Complexes: Extensive Characterization and Potential Cytotoxic Effect in Human Colorectal Carcinoma Cells” (Pharmaceutics, 2022):
Converted amounts (≈) assume the structure as drawn. Read-outs that look alike come from different tables or passages of the source.

Tests used:
[1] = Solubility of carvacrol in the absence of cyclodextrins (S0) at different pH; format: physicochemical; conditions: for S0 (solubility of carvacrol) / solubility at 60 min: absence of CDs; for solubility at 60 min: aqueous buffer, thermodynamic from solid
Experimental: (§1) The solubility studies of carvacrol, in the presence of CDs, were performed according to the method described by Higuchi and Connors in 1965, with slight modifications. […] For an evaluation of the pH effect in the process of complex formation, these solutions were prepared in different buffer solutions: 100 mM sodium acetate buffer, pH 3.5 and 5.5; 100 mM sodium phosphate buffer, pH 6.5 and 7.0; and 100 mM sodium borate buffer, pH 8.5. To each solution, a saturating amount of the carvacrol under analysis was added, then the solutions were kept in an ultrasonic bath for 60 min in the dark at 25 °C until equilibrium was reached. After this point, the solutions were filtered through 0.45 μm nylon to remove the excess carvacrol.
(§2) To quantify the amount of monoterpene in each filtrate, the complexes were disrupted by adding 80% ethanol. Each solution was then introduced into a gas chromatograph, coupled to a mass spectrometer (Shimadzu QP 2010) equipped with an Slb-5 ms (30 m × 0.25 mm × […]) capillary column. The operating conditions are as follows: the starting temperature is 70 °C, the temperature is increased at a rate of 4 °C/min until it reaches 160 °C and is then increased to 280 °C at a rate of 30 °C/min, then held there for 6 min; the inlet temperature is 250 °C, the injection type is a 1:20 split mode, with helium used as the carrier gas. Component identification is based on the relative elution times and comparison of the mass spectra of each peak against a database containing the system.
(§3) Once the concentrations of carvacrol in each sample were quantified, the values obtained were plotted against the concentrations of CDs. For the calculation of KC, the slope and intercept of the phase diagrams related to the solubility studies were determined, according to Equation (1):(1) KC=Slope/S0 (1−Slope) where S0 is the solubility of carvacrol at 25 °C, in the absence of cyclodextrins, and Slope is the gradient of the phase solubility diagrams.

[2] = Phase solubility study of carvacrol with α-CDs (Higuchi and Connors); format: physicochemical
Experimental: as §1, §2, §3
(§4) To determine the complexation efficiency (CE) of carvacrol, Equation (2) was used:(2) CE=[carvacrol−CDs]/[CD]=S0× KC.
(§5) The molar ratio (MR) of carvacrol:CDs was calculated using the CE values and Equation (3):(3) carvacrol:CDs=1:(1+1/CE).

[3] = Phase solubility study of carvacrol with β-CDs (Higuchi and Connors); format: physicochemical; conditions: for CE (complexation efficiency) / KC: β-CDs
Experimental: as §1, §2, §3, §4, §5

[4] = Phase solubility study of carvacrol with HP-β-CDs (Higuchi and Connors); format: physicochemical
Experimental: as §1, §2, §3, §4, §5

[5] = Complexation of carvacrol with HP-β-CD by ultrasound (US); format: physicochemical
Experimental: as §3
The solubility method was developed from that used by Higuchi and Connors, with minor modifications. We added an excess of carvacrol to an aqueous solution that increased the concentration to 100 mM HP-β-CD, in 100 mL of water, at 25 °C. […] The aqueous solutions were filtered through 0.45 µm nylon to remove the excess free carvacrol. To determine the amount of carvacrol complexed, samples were diluted in ethanol-water at 80% and analyzed via gas chromatography–mass spectrometry (CG–MS).

[6] = Complexation of carvacrol with HP-β-CD by microwave irradiation (MWI); format: physicochemical; conditions: for increase in solubility of carvacrol / KC: HP-β-CDs
Experimental: as §3
The calculation of the complexation constant (KC) between carvacrol and HP-β-CDs was carried out by the addition of different concentrations of HP-β-CDs to 100 mL of water, maintaining a 1:1 molar ratio. Aqueous HP-β-CD solutions (0–100 mM) were irradiated with microwaves for 30 s at 10 s intervals until the dissolution reached 70 °C. The carvacrol was then added to each sample and irradiated again for 30 s at the same intervals (10 s) until the samples reached 70 °C. Subsequently, the samples were shaken and held for 12 h in scintillation vials, sealed with parafilm, and protected from light.
Then, we repeated the above procedure by irradiating the sample again until it reached 70 °C. The solution was then filtered through 0.45 μm nylon to remove the excess carvacrol. Finally, the concentration of monoterpene was determined via CG-MS.

[7] = tested on: HCT-116 colorectal cancer cells; assay: Cell viability assay (tetrazolium), HCT-116; format: cell-based; conditions: Homo sapiens; HCT-116, 72 h incubation
Experimental: (§6) Colorectal adenocarcinoma (HCT-116) and non-tumoral fetal lung fibroblast (MRC5) cell lines were obtained from the American Type Culture Collection (ATCC, Rockville, MD, USA). The cell lines were cultivated in high glucose Dulbecco’s modified Eagle’s medium (DMEM) and Eagle’s minimum essential medium (EMEM), respectively, containing 10% heat-inactivated fetal bovine serum (FBS), 2 mM glutamine, 50 U/mL penicillin and 50 µg/mL streptomycin (Sigma-Aldrich Chemical Co., St. Louis, MO, USA) in an atmosphere of 5% CO2 and 95% humidified air at 37 °C. The subculture was complete when 90% confluence was reached. Fibroblasts for up to 15 doublings were used for the experiments.
(§7) Exponentially growing cells were plated in triplicate in flat-bottomed 96-well plates (Nunc, Roskilde, Denmark) at 1500 cells/well for HCT-116 and 4000 cells/well for MRC5. The following day, compounds were added in serial dilutions, from 50 µM to 1000 µM. Control wells contained compound-free medium plus 0.1% dimethyl sulfoxide (DMSO). The plates were incubated for 3 days in a humidified 5% CO2 incubator and cell viability was determined. […] The formazan crystals were dissolved in 200 µL DMSO for 30 min and the absorbance was read at 570 nm in a microtiter plate reader. The results were calculated as:(7) cell viability (%)=average O.D of wells/average O.D of control wells.

[8] = tested on: MRC-5 lung fibroblast cells; assay: Cell viability assay (tetrazolium), MRC-5; format: cell-based; conditions: Homo sapiens, MRC5; MRC-5, 72 h incubation
Experimental: as §6, §7

[9] = end of the 7-day period, 300 µM, DMEM with HCT-116 cells, 37 °C
Experimental: Carvacrol release from the free and complexed carvacrol was monitored by chromatography (see Section 2.2). Briefly, 1 × 10^5 HCT-116 cells were grown for up to 7 days in DMEM, supplemented with 300 µM free or complexed HP-β-CD-carvacrol, at 37 °C. At each appropriate time point (days 1–7), 1 mL aliquots were withdrawn and replaced with an equal volume of fresh medium. All determinations were made in triplicate.

[10] = weak acid; cited from earlier work
[11] = parameters: method as in PMID 25298799; conditions: with HP-β-CDs; cited from earlier work
[12] = parameters: method as in PMID 25298799; conditions: with RAMEB; cited from earlier work
[13] = parameters: method as in PMID 25298799; conditions: with CRYSMEB; cited from earlier work

For `Cc1ccc(C(C)C)cc1O` [carvacrol], the “S0 (solubility of carvacrol)” value ([1]; pH 3.5, 25 °C) was 2760 ± 200 µM, the “S0 (solubility of carvacrol)” value ([1]; pH 6.5, 25 °C) was 920 ± 110 µM and the “decrease of solubility at pH 7.0 relative to acidic pH” value ([1]; pH 7.0 vs acidic pH (S0 = 2.76)) was 80%. The “S0 (solubility of carvacrol)” value ([1]; pH 8.5, 25 °C) was 760 ± 130 µM, the solubility at 60 min ([1]; sodium acetate buffer, pH 3.5, 25 °C) was 2760 µM (≈ 415 µg/mL) and the solubility at 60 min ([1]; sodium acetate buffer, pH 5.5, 25 °C) was 1650 ± 160 µM (≈ 248 µg/mL). For the same compound, the solubility at 60 min ([1]; sodium borate buffer, pH 8.5, 25 °C) was 760 µM (≈ 114 µg/mL), the solubility at 60 min ([1]; sodium phosphate buffer, pH 6.5, 25 °C) was 920 µM (≈ 138 µg/mL) and the solubility at 60 min ([1]; sodium phosphate buffer, pH 7.0, 25 °C) was 560 ± 30 µM (≈ 84.1 µg/mL). For the same compound, the “CE (complexation efficiency)” value ([2]; pH 3.5) was 0.298, the KC ([2]; pH 3.5) was 108 ± 16 L/mol and the “CE (complexation efficiency)” value ([2]; pH 5.5) was 0.317. The KC ([2]; pH 5.5) was 192 ± 24 L/mol, the “CE (complexation efficiency)” value ([2]; pH 6.5) was 0.220 and the KC ([2]; pH 6.5) was 239 ± 42 L/mol. The “CE (complexation efficiency)” value ([2]; pH 7.0) was 0.224, the KC ([2]; pH 7.0) was 400 ± 56 L/mol and the “CE (complexation efficiency)” value ([2]; pH 8.5) was 0.216. For the same compound, the KC ([2]; pH 8.5) was 284 ± 37 L/mol, the “KC with β-CDs relative to KC with α-CD” value ([3]; compared with α-CD (400 ± 56)) was 8 times higher and the “CE (complexation efficiency)” value ([3]; pH 3.5) was 0.386. The KC ([3]; pH 3.5) was 140 ± 21 L/mol, the “CE (complexation efficiency)” value ([3]; pH 5.5) was 1.234 and the KC ([3]; pH 5.5) was 748 ± 19 L/mol. For the same compound, the “CE (complexation efficiency)” value ([3]; pH 6.5) was 0.797, the KC ([3]; pH 6.5) was 866 ± 180 L/mol and the “CE (complexation efficiency)” value ([3]; pH 7.0) was 1.941. The KC ([3]; pH 7.0) was 3466 ± 115 L/mol, the “CE (complexation efficiency)” value ([3]; pH 8.5) was 0.441 and the KC ([3]; pH 8.5) was 580 ± 45 L/mol. For the same compound, the “CE (complexation efficiency)” value ([4]; pH 3.5) was 0.546, the KC ([4]; pH 3.5) was 198 ± 19 L/mol and the “CE (complexation efficiency)” value ([4]; pH 5.5) was 0.540. For the same compound, the KC ([4]; pH 5.5) was 327 ± 37 L/mol, the “CE (complexation efficiency)” value ([4]; pH 6.5) was 1.399 and the KC ([4]; pH 6.5) was 1521 ± 73 L/mol. The “CE (complexation efficiency)” value ([4]; pH 7.0) was 2.824, the KC ([4]; pH 7.0) was 5042 ± 176 L/mol and the “CE (complexation efficiency)” value ([4]; pH 8.5) was 0.739. For the same compound, the KC ([4]; pH 8.5) was 973 ± 94 L/mol, the “increase in solubility of carvacrol” value ([5]; HP-β-CDs, US method) was 132.9 times and the KC ([5]; HP-β-CDs, US, pH 7.0) was 6909 ± 161 L/mol. The KC ([5]; HP-β-CDs, ultrasound (US), 24 h) was 8129 ± 194 L/mol, the S0 ([5]; achieved by US) was 0.56 mmol/L and the “increase in solubility of carvacrol” value ([6]; MWI, 24 h) was 151.8 times. The “increase in solubility of carvacrol” value ([6]; MWI, 48 h) was 155.6 times, the KC ([6]; MWI, at 24 h, pH 7.0) was 8129 ± 194 L/mol and the KC ([6]; MWI, at 48 h, pH 7.0) was 6811 ± 107 L/mol. For the same compound, the KC ([6]; microwave irradiation (MWI)) was 6909 ± 161 L/mol, the S0 ([6]; in the case of MWI) was 0.35 mmol/L and the IC50 [7] was 385 µM. The IC50 [8] was 398 µM, the “soluble drug (carvacrol release)” value [9] was 4.37 ± 1.61% and the pKa [10] was 10.38.
In the case of `O=C(O)/C=C/c1ccc(O)cc1` [p-coumaric acid], the “CE (complexation efficiency)” value [11] is listed as 2.30, the “CE (complexation efficiency)” value [12] is listed as 2.57 and the “CE (complexation efficiency)” value [13] is listed as 1.89.
